Assay results: BindingDB's records for doi:10.1021/jm980511k (Research Triangle Institute, 1999)

Assays:
[1] = Binding affinity determined on Opioid receptor delta 1 in Guinea pig brain membranes using radioligand [3H]DADLE
[2] = Inhibition of [35S]GTP-gamma-S, binding from Opioid receptor delta 1 in Guinea pig Caudate stimulated by SNC80

SMILES | Ki [1] | Ki [2]
CC(C)[C@@H](CN1CC[C@@](C)(c2cccc(O)c2)[C@@H](C)C1)NC(=O)CCc1ccc(O)cc1 [3-(4-Hydroxy-phenyl)-N-{1-[4-(3-hydroxy-phenyl)-3,4-dimethyl-piperidin-1-ylmethyl]-2-methyl-propyl}-propionamide] | > 5700 nM | 
C[C@@H]1CN(C/C=C/c2ccccc2)CC[C@]1(C)c1cccc(O)c1 [3-[(3S,4S)-3,4-Dimethyl-1-((E)-3-phenyl-allyl)-piperidin-4-yl]-phenol] | 322 nM | 1.5 nM
